Experimental data taken from patent publication US10471035B2, “Compositions and methods for using esters of meroterpenes and of other resveratrol analogues” (Sunny BioDiscovery, priority 2014, dated 2019).
Converted amounts (≈) assume the structure as drawn.

Legend:
[1] = test system: non-irradiated neonatal HDF; assay: Cytotoxicity on non-irradiated neonatal HDF monolayers; type: cell-based, human; conditions: human, 12.5 μg/ml
[2] = test system: mouse melanoma cells (B16F10); assay: B16F10 melanoma growth and melanin; type: cell-based
Description: Instead, cells cultured in the presence of SBD.SE grew slower and if allowed to reach monolayer, they become growth-arrested due to contact inhibition. […] Other retinoids, such as bexarotene, are known to have antineoplastic activity against cancers such as cutaneous T cell lymphoma.
The mechanism of action for this effect may be multifactorial and involve the inhibition of tyroinase and/or melanin secretion by melanocytes.

adult HEK = assay: Adult HEK proliferation; type: cell-based, human; conditions: 2.5 μg/ml
EpiOcular™ tissue = assay: EpiOcular Eye Irritation Test (OCL-200-EIT); type: cell-based, human
Experimental: Also, the effect of SBD.SE on the epiocular system was investigated. Epiocular system consists of normal, human-derived epidermal keratinocytes, which have been cultured to form a stratified, squamous epithelium similar to that found in the cornea.
The effect of SBD.SE was assayed on the EpiOcular™ tissue, using the MatTek (Ashland, Mass.) EpiOcular™ Eye Irritation Test (OCL-200-EIT) protocol.
Based on the “depth of injury” model, the Epiocular EIT is intended to differentiate those materials that are non-irritants (would not require a warning label in the European chemical classification systems) from those that would require labeling as either GHS1 or 2. Consequentially, this test allows to distinguish those materials that would induce no damage or damage limited into the corneal epithelium from those that would damage/destroy the epithelium and continue damage into the stroma.
This protocol utilizes the MTT-based cytotoxicity readout as the experimental endpoint, and thus effectively measures the cytotoxicity of test materials. Biological duplicates are used for all calculations. SBD.SE was tested at 10% (100 mg/ml) in dimethyl isosorbide (DMI). The negative control was type I sterile water and the positive control was neat methyl acetate. The pre-incubation time I was 60 min., preincubation time II—overnight, treatment time—30 min., post-soak is 120 min, incubation time with MTT test was 3 h and the extraction was overnight. The extracted formazan was quantified with Molecular Devices microplate spectrophotometer MAX190 at 570 nm.
(§1) Tissue irritation is a common side effect of retinoids. It is mediated, at least in part, by retinoid interaction with retinoic acid receptors (RARs; Thacher S M, Vasudevan J, Chandraratna R A. Therapeutic applications for ligands of retinoid receptors. Curr Pharm Des. 2000 January; 6(1):25-58; Kambayashi H, Odake Y, Takada K, Funasaka Y, Ichihashi M, Kato S. N-retinoyl-D-glucosamine, a new retinoic acid agonist, mediates topical retinoid efficacy with no irritation on photoaged skin. Br J Dermatol. 2005 December; 153 Suppl 2:30-6).

[3] = DPPH assay (free radical scavenging); type: biochemical; conditions: 520 nm
Description: The objective of this experiment was to determine the antioxidant capacity of SBD.SE, using DPPH assay methodology. DPPH (2,2-diphenyl-1-picrylhydrazyl) is a stable free radical. The principle of the DPPH assay uses the reduction of the DPPH radical (purple) to diphenylpicrylhydrazine (yellow) as an indication of free radical scavenging capacity of a given test material (Schenk, G. H., Swieczkowski, N. K., “Colorimetric determination of pyrogallol and 2,6-dimethoxyphenol with diphenylpicrylhydrazyl,” Talanta, 1971, 18:230-4). Following the incubation of a test agent with DPPH solution, a reduction in absorbance at 520 nm compared to control is indicative of DPPH-scavenging. The degree of DPPH scavenging activity is expressed as % water control.

[4] = UVB irradiation, HPLC-MS profile; type: physicochemical
Description: Both compounds were irradiated with UVB light and their HPLC-MS profile was compared to their respective non-irradiated controls. FIGS. 2, 3, 6, and 7 show HPLC chromatograms of UVB-irradiated (lower portions) and non-irradiated samples (upper portions) of bakuchiol (FIGS. 2 and 3) and SBD.SE (FIGS. 6 and 7) detected at 254 nm (FIGS. 2 and 6) and 230 nm (FIGS. 3 and 7).

P. acnes = assay: MIC against planktonic P. acnes; type: cell-based, Propionibacterium acnes; conditions: Cutibacterium acnes; exponentially-growing planktonic bacteria, oxygen-free atmosphere; read-out: MIC (minimal inhibitory concentration)
Experimental: Serial dilutions of SBD.SE and SBD.FA were incubated with exponentially-growing planktonic P. acnes bacteria in oxygen-free atmosphere.
The MIC (minimal inhibitory concentration) for SBD.SE was determined to be about 30 μg/ml and for SBD.FA—about 60 μg/ml.

RAR = assay: Cignal RAR reporter assay; type: cell-based; conditions: up to 50 μg/ml
Description: as §1

3T3 cells = assay: 3T3 Neutral Red phototoxicity (OECD 432); type: cell-based; conditions: up to at least 100 μg/ml
Experimental: Phototoxicity is defined as light-activated cytotoxicity. […] The protocol followed in this example was based on the OECD 432 Guidelines. Four 96 well plates were seeded with 3T3 cells (Sigma, St. Louis, Mo.; cat. 93061524-1VL) at 10,000 cells per well in DMEM supplemented with 10% iron-fortified calf serum, and grown overnight in humidified atmosphere at 37° C. in 5% CO2. Serial dilutions of SBD.SE and chlorpromazine (positive control) were added to 2 plates each. […]
[…] Plates were returned to the incubator for 24 h, afterward the medium was removed, cells were rinsed with PBS and placed in Neutral Red medium at 50 μg/ml in which cells were incubated for 3 more hours. Wells were then washed with PBS and Neutral Red was extracted from cells with 1.0% Glacial Acetic Acid/50% Ethanol/49% H2O solution.
Following a 30-minute extraction with mixing, the absorbance of each well was measured at 570 nm with Molecular Devices SpectraMax® microplate spectrophotometer. P values were calculated using two-tailed Student's test and p=0.05 was set as borderline for statistical significance.

cytokine-treated HEK = assay: Morphology of cytokine-treated HEK; type: cell-based, human; conditions: 10 μg/ml; IL17A, IL22 and TNF-alpha
Description: This is in agreement with the Example 3, showing that SBD.SE decreases cellular response to cytokine stimulus (Table 1).

In the case of C=C[C@@](C)(/C=C/c1ccc(OC(=O)c2ccccc2O)cc1)CCC=C(C)C [SBD.SE, Salicylic acid ester of bakuchiol], the cytotoxicity [1] was 18%, the “growth of B16F10 cells” value ([2]; 1 μg/ml to 10 μg/ml) was “inhibited the growth” and the inhibition at 2.5 µg/mL ([2]; Mus musculus, B16-F10, 2.5 μg/ml, read-out: inhibition of B16F10 melanocyte proliferation) was 44%. The “melanin in growth medium” value ([2]; versus darkened medium of water control) was “completely deprived of melanin”, the “inhibition of adult HEK proliferation” value (adult HEK) was “not inhibited” and the “irritation in reconstituted squamous epithelium model” value (EpiOcular™ tissue) was “no statistically significant irritation”. The “classification in EpiOcular EIT” value (EpiOcular™ tissue; 10% (100 mg/ml) in DMI) was “non-irritant and non-cytotoxic”, the “viability (% of water control)” value (EpiOcular™ tissue; SBD.SE 10% (100 mg/ml) in DMI, methyl acetate neat, 30 min treatment, MTT) was “over 60%” and the “DPPH color (% Control)” value ([3]; 0.5 ug/ml) was 86 % Control. For the same molecule, the “DPPH color (% Control)” value ([3]; 2 ug/ml) was 89 % Control, the “DPPH color (% Control)” value ([3]; 10 ug/ml) was 59 % Control and the “DPPH color (% Control)” value ([3]; 16 ug/ml) was 28 % Control. For the same molecule, the “DPPH color (% Control)” value ([3]; 40 ug/ml) was 6 % Control, the “stability under UVB irradiation (HPLC-MS)” value [4] was “no difference in mass of the peaks” and the MIC (P. acnes) was about 30 µg/mL (≈ 79.7 µM). For the same molecule, the “transactivation of RAR” value (RAR) was “no effect”, the “cytotoxicity in absence and presence of UVB light” value (3T3 cells) was “lack of significant cytotoxicity” and the cytokine-induced morphologic changes (cytokine-treated HEK) was “prevents these changes”.
